Consider two compounds from US20240390417A1, “MNO NANOMATERIAL BASED INHIBITORS OF INFLAMMATION AND SARS-COV-2 VIRAL REPLICATION” (Duke University, priority 2015, published 2024).

For one series, the system named is calf thymus DNA. Description: PicoGreen DNA-binding assay. The note with it: TE buffer, unbound PicoGreen-labeled DNA. How it is done:
The fluorescence intensity of the unbound Picogreen®-DNA complex at 520 nm was measured with a multiwell plate reader via excitation at 490 nm.
Inflammatory circulating cfDNA released by PTT-damaged host cells might cause a severe inflammatory response, which may be mitigated by the scavenging of cfDNA. Therefore, to interrogate the cfDNA scavenging ability of the various nanoparticles, the inventors investigated the calf thymus DNA binding affinity of the nanoparticles in Tris-EDTA (TE) buffer with and without 10% FBS by measuring unbound PicoGreen®-labeled DNA (FIGS. 5C and 5D).

Another series has as its system 4T1 tumor-bearing mice. Description: PTT-induced inflammation, 4T1 metastasis tumor model. The settings on record: intravenous three times per week. How it is done: The fluorescent signal intensity was recorded on the IVIS® instrument at different time intervals.
The ability of the MnO and MnO@Cucumin nanoparticles to mitigate the PTT-induced inflammatory response was examined on 4T1 tumor-bearing mice. […] The 4T1 tumor-bearing mice received photothermal therapy first, and then were further treated with different formulations by intravenous injection three times per week.

As to `COc1cc(/C=C/C(=O)CC(=O)/C=C/c2ccc(O)c(OC)c2)ccc1O` [curcumin], in the series on calf thymus DNA, the DNA binding affinity result is on record as “negligible DNA binding ability”. Further, in the series with 4T1 tumor-bearing mice (after laser (PTT)), the body weight result was “increased body weight”; the “tumor recurrence and metastasis” value was “inhibited tumor recurrence and metastasis”. Moreover, in the series on 4T1 tumor-bearing mice (without laser), the “effect on body weight of the mice” value is “did not show obvious effects” and the “effect on size of the tumors” value was “did not show obvious effects”.

As for `O=C(OC[C@H]1O[C@@H](OC(=O)c2cc(O)c(O)c(OC(=O)c3cc(O)c(O)c(O)c3)c2)[C@H](OC(=O)c2cc(O)c(O)c(OC(=O)c3cc(O)c(O)c(O)c3)c2)[C@@H](OC(=O)c2cc(O)c(O)c(OC(=O)c3cc(O)c(O)c(O)c3)c2)[C@@H]1OC(=O)c1cc(O)c(O)c(OC(=O)c2cc(O)c(O)c(O)c2)c1)c1cc(O)c(O)c(OC(=O)c2cc(O)c(O)c(O)c2)c1` [tannic acid], the DNA binding affinity result in the series with calf thymus DNA is “can bind to DNA”.
